In patent publication US9682131B2, “Compositions and method for utilization of thioretinamide in therapy of degenerative diseases of aging” (priority 2011, dated 2017):

What was measured:
transplanted neoplasms = conditions: cited from earlier work; for growth of transplanted neoplasms in animals: U.S. Pat. No. 4,383,994
[1] = Carcinogenesis 1987; 8:1559-1562; Proc Soc Exp Biol Med 1989; 191:346-351; cited from earlier work
[2] = tested on: rats treated with parenteral homocysteine thiolactone; conditions: Kazimir et al 2002; cited from earlier work
[3] = tested on: transplanted murine mammary adenocarcinoma; conditions: Chemotherapy 1977; 23:44-49; cited from earlier work
Toxicity in human trials = conditions: 7.5 mg/70 kg/day to 300 mg/70 kg/day
Toxicity in animal tests = conditions: 7.5 mg/70 kg/day to 300 mg/70 kg/day
[4] = tested on: normal and hypophysectomized animals; conditions: Science 1976, 192:372-374, cited from earlier work
[5] = tested on: transplanted malignant neoplasms; conditions: animals with transplanted malignant neoplasms; U.S. Pat. No. 4,255,443; cited from earlier work
retinal cells = conditions: through reactive oxygen species generation and increased expression of heme oxygenase; J Cell Physiol 2006; cited from earlier work

N-maleamide homocysteine thiolactone amide
growth of transplanted neoplasms in animals (transplanted neoplasms): suppress the growth
effect of encapsulation within liposomes on anti-neoplastic activity (transplanted neoplasms; encapsulated within liposomes, Proc Soc Exp Biol Med 1985, 180:57-61): greatly enhances its anti-neoplastic activity

rhodium trichloride oxalyl homocysteine thiolactone amide
growth of transplanted neoplasms in animals (transplanted neoplasms): suppress the growth

N-homocysteine thiolactonyl retinamido cobalamin [thioretinaco]
anti-carcinogenic and anti-neoplastic activities [1]: have anti-carcinogenic and anti-neoplastic activities
anti-atherogenic activity [2]: have anti-atherogenic activity

CCCCC/C=C/C/C=C/C/C=C/C/C=C/CCCC(=O)NC1CCSC1=O (stereo not shown) [Arachidonoyl homocysteine thiolactone amide]
growth of transplanted murine mammary adenocarcinoma [3]: decrease the growth

N-maleyl homocysteine thiolactone amide
growth of transplanted neoplasms in animals (transplanted neoplasms): suppress the growth

CC1=C(/C=C/C(C)=C/C=C/C(C)=C/C(=O)NC2CCSC2=O)C(C)(C)CCC1 (stereo not shown) [thioretinamide, N-homocysteine thiolactonyl retinamide]
anti-carcinogenic and anti-neoplastic activities [1]: have anti-carcinogenic and anti-neoplastic activities
anti-atherogenic activity [2]: have anti-atherogenic activity

CC1=C(/C=C/C(C)=C/C=C/C(C)=C/CO)C(C)(C)CCC1 [retinol]
evidence of toxicity, such as weight loss, nausea, impairment of liver function, headache, or skin lesions (Toxicity in human trials): no evidence of toxicity
evidence of toxicity, such as weight loss, nausea, impairment of liver function, headache, or skin lesions (Toxicity in animal tests): no evidence of toxicity

N[C@@H](CCS(=O)(=O)O)C(=O)O [Homocysteic acid]
growth and release of insulin-like growth factor, IGF-1 ([4]; hypophysectomized animals treated with thyroxine): promotes growth and release of insulin-like growth factor, IGF-1
growth in normal animals ([4]; normal animals): promotes growth

N[C@H]1CCSC1=O.[O-][Cl+3]([O-])([O-])O [homocysteine thiolactone perchlorate]
necrosis within malignant neoplasms [5]: increased necrosis within malignant neoplasms

CC1=C(/C=C/C(C)=C/C=C/C(C)=C/C(=O)Nc2ccc(O)cc2)C(C)(C)CCC1 [fenretinide, N-(4-hydroxyphenyl)-retinamide]
apoptosis in retinal cells (retinal cells): induces apoptosis

pyridoxal homocysteine thiolactone enamine
growth of transplanted murine mammary adenocarcinoma [3]: decrease the growth
